Where “and” joins values, the source holds several entries; their conditions need not be identical. Identical values can stand only once. Toxic doses and inconclusive results are not listed.

This experiment has as its system BDF1 mice, B16 melanoma ip, median survival T/C. Kind of experiment: NCI In Vivo Anticancer Drug Screen. Data for tumor model B16 Melanoma (intraperitoneal) in B6D2F1 (BDF1) mice. To be noted: endpoint: median survival time, higher = longer survival. A digest of the protocol: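 Compounds were tested in mice carrying transplantable tumors. Survival or tumor size was recorded, and each value is the treated-group measurement (T) divided by that of the vehicle-treated control group (C).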

Where [1] appears, read: dose: 3.12 mg/kg/injection, schedule: Q01DX009 (ip), vehicle: saline.
Where [2] appears, read: dose: 6.25 mg/kg/injection, schedule: Q01DX009 (ip), vehicle: saline.
Setting [3] is: dose: 12.5 mg/kg/injection, schedule: Q01DX009 (ip), vehicle: saline.
Where [4] appears, read: dose: 25.0 mg/kg/injection, schedule: Q01DX009 (ip), vehicle: saline.
Where [5] appears, read: dose: 25.0 mg/kg/injection, schedule: Q01DX009 (ip), vehicle: saline with Tween-80.
Setting [6] is: dose: 50.0 mg/kg/injection, schedule: Q01DX009 (ip), vehicle: saline with Tween-80.
[7] abbreviates: dose: 100.0 mg/kg/injection, schedule: Q01DX009 (ip), vehicle: saline with Tween-80.
The mark [8] stands for this setting: dose: 50.0 mg/kg/injection, schedule: Q01DX009 (ip), vehicle: saline.
[9] abbreviates: dose: 200.0 mg/kg/injection, schedule: Q01DX009 (ip), vehicle: saline with Tween-80.
Setting [10] is: dose: 400.0 mg/kg/injection, schedule: Q01DX009 (ip), vehicle: saline with Tween-80.
Setting [11] is: dose: 100.0 mg/kg/injection, schedule: Q01DX009 (ip), vehicle: Klucel (hydroxypropylcellulose) (HPC).
Where [12] appears, read: dose: 50.0 mg/kg/injection, schedule: Q01DX009 (ip), vehicle: Klucel (hydroxypropylcellulose) (HPC).
Where [13] appears, read: dose: 12.5 mg/kg/injection, schedule: Q01DX009 (ip), vehicle: saline with Tween-80.
Where [14] appears, read: dose: 2.5 mg/kg/injection, schedule: Q01DX009 (ip), vehicle: saline.
[15] abbreviates: dose: 5.0 mg/kg/injection, schedule: Q01DX009 (ip), vehicle: saline.
Setting [16] is: dose: 100.0 mg/kg/injection, schedule: Q01DX009 (ip), vehicle: saline.
Setting [17] is: dose: 200.0 mg/kg/injection, schedule: Q01DX009 (ip), vehicle: saline.
[18] abbreviates: dose: 400.0 mg/kg/injection, schedule: Q01DX009 (ip), vehicle: saline.

With `C[CH2][Sn]([CH2]C)([O]S(=O)(=O)CC12CCC(CC1=O)C2(C)C)[O]S(=O)(=O)CC12CCC(CC1=O)C2(C)C`, the T/C is, setting by setting: (dose: 1.56 mg/kg/injection, schedule: Q01DX009 (ip), vehicle: saline) 100 % of control; under setting [1], 108 % of control; under setting [2], 115 % of control; under setting [3], 100 % of control; under setting [4], 96 % of control.
Consider `Cc1ccc(C)c(C(=O)CCCCl)c1`, for which the T/C is, setting by setting: under setting [5], 118 % of control; under setting [6], 97 % of control; under setting [7], 113 % of control.
Take `CCN(CCCCOC(=O)c1ccc(OC)c(OC)c1)C(C)Cc1ccc(OC)cc1` (stereo not drawn): the T/C reads like this: (dose: 1.32 mg/kg/injection, schedule: Q01DX009 (ip), vehicle: saline) 93 % of control; (dose: 2.65 mg/kg/injection, schedule: Q01DX009 (ip), vehicle: saline) 98 % of control; (dose: 4.68 mg/kg/injection, schedule: Q04DX003 (ip), vehicle: saline) 116 % of control; (dose: 5.31 mg/kg/injection, schedule: Q01DX009 (ip), vehicle: saline) 105 % of control and 107 % of control; (dose: 9.37 mg/kg/injection, schedule: Q04DX003 (ip), vehicle: saline) 111 % of control; (dose: 10.6 mg/kg/injection, schedule: Q01DX009 (ip), vehicle: saline) 88 % of control. The T/C is 88 % of control (dose: 10.62 mg/kg/injection, schedule: Q01DX009 (ip), vehicle: saline); 119 % of control (dose: 18.75 mg/kg/injection, schedule: Q04DX003 (ip), vehicle: saline); 90 % of control (dose: 21.2 mg/kg/injection, schedule: Q01DX009 (ip), vehicle: saline); 91 % of control and 109 % of control (dose: 21.25 mg/kg/injection, schedule: Q01DX009 (ip), vehicle: saline); 113 % of control (dose: 37.5 mg/kg/injection, schedule: Q04DX003 (ip), vehicle: saline); 95 % of control and 101 % of control (dose: 42.5 mg/kg/injection, schedule: Q01DX009 (ip), vehicle: saline). For the same compound, the T/C (dose: 75.0 mg/kg/injection, schedule: Q04DX003 (ip), vehicle: saline) is 119 % of control; the T/C (dose: 85.0 mg/kg/injection, schedule: Q01DX009 (ip), vehicle: saline) was 87 % of control; the T/C (dose: 110.0 mg/kg/injection, schedule: Q04DX003 (ip), vehicle: saline) is 112 % of control.
For the compound `C=CCN(CC=C)CCN(CC)CC`, the T/C is 93 % of control under setting [2], 94 % of control under setting [3], 94 % of control under setting [4] and 91 % of control under setting [8].
Consider `COC(CCC#N)c1ccc(Cl)cc1` (stereo not drawn), for which the T/C is, setting by setting: under setting [7], 101 % of control; under setting [9], 96 % of control; under setting [10], 98 % of control.
On to `COc1ccccc1NC(=O)c1ccccc1`, for which the T/C runs as follows: under setting [7], 97 % of control; under setting [9], 107 % of control; under setting [10], 97 % of control.
For `CC(C)CN(CCCCO)CC(C)C`, the T/C under setting [6] was 102 % of control, the T/C under setting [7] is 111 % of control and the T/C under setting [9] is 98 % of control.
For `CCCCNc1ccc(Nc2ccccc2)cc1`, the T/C was 103 % of control (dose: 25.0 mg/kg/injection, schedule: Q01DX009 (ip), vehicle: saline + alcohol) and 104 % of control (dose: 50.0 mg/kg/injection, schedule: Q01DX009 (ip), vehicle: saline + alcohol).
As for `Nc1ccc(N=Nc2ccc(S(=O)(=O)O)cc2)cc1`, the T/C was 93 % of control under setting [5]; 97 % of control under setting [6]; 90 % of control and 104 % of control under setting [7].
In the case of `Nc1cccc2c1nc(NCCO)c1ccccc12`, the T/C runs as follows: under setting [6], 94 % of control; under setting [7], 102 % of control; under setting [9], 94 % of control; under setting [10], 102 % of control.
In the case of `O=[N+]([O-])c1ccc2c(c1)=N/C(=N\c1nc(O)c(O)[nH]1)N=2`, the T/C is 86 % of control under setting [11]; 100 % of control (dose: 200.0 mg/kg/injection, schedule: Q01DX009 (ip), vehicle: Klucel (hydroxypropylcellulose) (HPC)); 103 % of control (dose: 400.0 mg/kg/injection, schedule: Q01DX009 (ip), vehicle: Klucel (hydroxypropylcellulose) (HPC)).
Turning to `C[C@]12CC[C@H](O)C[C@@H]1CC[C@@H]1[C@@H]2C(=O)C[C@@]2(C)[C@H]1CC[C@]2(O)C(=O)CBr`, the T/C is 90 % of control under setting [12]; 100 % of control under setting [6]; 93 % of control under setting [11]; 94 % of control under setting [7]; 91 % of control under setting [9].
Consider `O=C(NC1CCCCC1)OCc1c(COC(=O)NC2CCCCC2)c(-c2ccc(Cl)c(Cl)c2)n2c1CCC2`, for which the T/C reads like this: under setting [13], 169 % of control; under setting [5], 214 % of control; (dose: 25.0 mg/kg/injection, schedule: Q01DX009 (oral), vehicle: saline with Tween-80) 107 % of control; under setting [6], 290 % of control; (dose: 50.0 mg/kg/injection, schedule: Q01DX009 (oral), vehicle: saline with Tween-80) 102 % of control; under setting [7], 304 % of control. For the same compound, the T/C by setting is: (dose: 100.0 mg/kg/injection, schedule: Q01DX009 (oral), vehicle: saline with Tween-80) 106 % of control; under setting [9], 153 % of control; (dose: 200.0 mg/kg/injection, schedule: Q01DX009 (oral), vehicle: saline with Tween-80) 107 % of control; under setting [10], 91 % of control; (dose: 400.0 mg/kg/injection, schedule: Q01DX009 (oral), vehicle: saline with Tween-80) 106 % of control; (dose: 800.0 mg/kg/injection, schedule: Q01DX009 (oral), vehicle: saline with Tween-80) 102 % of control.
For `c1cc[c]([Sn][c]2ccccc2)cc1`, the T/C was 97 % of control (dose: 0.8 mg/kg/injection, schedule: Q04DX003 (ip), vehicle: saline with Tween-80); 97 % of control (dose: 1.2 mg/kg/injection, schedule: Q04DX003 (ip), vehicle: saline with Tween-80); 95 % of control (dose: 1.25 mg/kg/injection, schedule: Q01DX009 (ip), vehicle: saline); 100 % of control (dose: 1.8 mg/kg/injection, schedule: Q04DX003 (ip), vehicle: saline with Tween-80); 111 % of control under setting [14]; 121 % of control (dose: 2.5 mg/kg/injection, schedule: Q04DX003 (ip), vehicle: saline with Tween-80). For the same compound, the T/C is 109 % of control under setting [15] and 115 % of control (dose: 5.0 mg/kg/injection, schedule: Q04DX003 (ip), vehicle: saline with Tween-80).
On to `O=C(Nc1nccs1)C(F)(F)F`, for which the T/C is, setting by setting: under setting [8], 98 % of control; under setting [16], 106 % of control; under setting [17], 103 % of control; under setting [18], 97 % of control.
In the case of `CCCC(C(CC)CN(C)C)N(C)C` (stereo not drawn), the T/C was 90 % of control under setting [13], 96 % of control under setting [5] and 94 % of control under setting [6].
Regarding `NC(=S)c1cn(C2OC(CO)C(O)C2O)c2ncnc(N)c12` (stereo not drawn), the T/C reads like this: under setting [14], 89 % of control; under setting [15], 91 % of control.
As to `CS(=O)(=O)O`, the T/C is 106 % of control under setting [16], 113 % of control under setting [17] and 123 % of control under setting [18].
`Cc1c2c(cc3c1[nH]c1ccccc13)C=NCC2`: the T/C is, setting by setting: under setting [6], 107 % of control; under setting [7], 98 % of control; under setting [9], 109 % of control.
For the compound `CCN1C(=O)CN(CCN2CC(=O)N(c3ccccc3)C2=S)C1=S`, the T/C by setting is: (dose: 18.75 mg/kg/injection, schedule: Q01DX009 (ip), vehicle: saline with Tween-80) 112 % of control; (dose: 37.5 mg/kg/injection, schedule: Q01DX009 (ip), vehicle: saline with Tween-80) 120 % of control.
Take `CN(C)CC/C=C1\c2ccccc2CSc2ccccc21`: the T/C was 90 % of control and 100 % of control under setting [1]; 89 % of control and 100 % of control under setting [2]; 97 % of control under setting [3]; 104 % of control under setting [4]; 95 % of control and 102 % of control under setting [8].
Consider `Cc1oc2c(c(=O)c1C)C1CCC(C2)N1C` (stereo not drawn), for which the T/C reads like this: (dose: 25.0 mg/kg/injection, schedule: Q01DX009 (ip), vehicle: Klucel (hydroxypropylcellulose) (HPC)) 103 % of control; under setting [12], 103 % of control; under setting [11], 97 % of control.

(Values after PubChem BioAssay AID192 (DTP/NCI, 2004).)
